Measurements reported in patent US5602106A, “16-membered macrolide derivatives” (priority 1993, dated 1997).
≈ marks a conversion by molar mass, not a printed value. Where two headings read alike, the source gives them in different places.

What was measured:
Format in all cases: cell-based
[1] = tested on: test strains; assay: Antimicrobial activity in vitro, test strains overall; details: for antimicrobial activities compared with starting materials (1), (2) and (33): 9-O-acylated vs free 9-hydroxyl
Experimental: (§1) The effect of the first aspect of the present invention resides in the creation of a novel and useful 16-membered macrolide derivative. Antimicrobial activities of the compounds of the present invention were determined by measuring minimum inhibitory concentration (MIC). Minimum inhibitory concentration was determined by the agar plate dilution method in the following manner.
(§2) Test strains were subjected to seed culture using Sensitivity test broth (STB, Nissui Pharmaceutical) except that the strains belonging to the genus Streptococcus, Branhamella and Haemophilus were cultured on blood agar plate. A 5 μl portion of cell suspension of the test strains having about 10^6 CFU/ml was inoculated into Sensitivity disk agar (SDA, Nissui Pharmaceutical) supplemented with 5% horse blood and incubated at 37° C. for 20 hours. Then, MIC was measured. […] Antimicrobial activities in vitro of the compounds (1) and (2) are shown in Table 1, and those of the compounds (3) and (4) in Table 3.

[2] = tested on: B. catarrhalis W-0500; assay: MIC, agar plate dilution method; details: Moraxella catarrhalis
Experimental: as §1, §2

[3] = tested on: B. catarrhalis W-0506; assay: MIC, agar plate dilution method; details: Moraxella catarrhalis
Experimental: as §1, §2

[4] = tested on: E. coli NIHJ JC-2; assay: MIC, agar plate dilution method; details: Escherichia coli, NIHJJC2, 20 h, 37° C., SDA with 5% horse blood, read-out: Antimicrobial activity (MIC)
Experimental: as §1, §2

[5] = tested on: E. faecalis W-73; assay: MIC, agar plate dilution method; details: Enterococcus faecalis, W73, 20 h, read-out: Antimicrobial activity (MIC)
Experimental: as §1, §2

[6] = tested on: H. influenzae Type b; assay: MIC, agar plate dilution method; details: Haemophilus influenzae
Experimental: as §1, §2

[7] = tested on: K. pneumoniae PCI602; assay: MIC, agar plate dilution method; details: Klebsiella pneumoniae, PCI602, 20 h, 37° C., SDA with 5% horse blood, read-out: Antimicrobial activity (MIC)
Experimental: as §1, §2

[8] = tested on: M. luteus ATCC9341; assay: MIC, agar plate dilution method; details: Micrococcus luteus
Experimental: as §1, §2

[9] = tested on: S. aureus 209P JC-1; assay: MIC, agar plate dilution method; details: Staphylococcus aureus, 209P, 20 h, read-out: Antimicrobial activity (MIC), 37° C., 20 hours, SDA with 5% horse blood
Experimental: as §1, §2

[10] = tested on: S. aureus M126; assay: MIC, agar plate dilution method; details: Staphylococcus aureus, 37° C., 20 hours, SDA with 5% horse blood, read-out: Antimicrobial activity (MIC)
Experimental: as §1, §2

[11] = tested on: S. aureus M133; assay: MIC, agar plate dilution method; details: Staphylococcus aureus, M133, 20 h, read-out: Antimicrobial activity (MIC), 37° C., 20 hours, SDA with 5% horse blood
Experimental: as §1, §2

[12] = tested on: S. aureus MS15009/pMS98; assay: MIC, agar plate dilution method; details: Staphylococcus aureus, MS15009/PMS98, 20 h, read-out: Antimicrobial activity (MIC), 37° C., 20 hours, SDA with 5% horse blood
Experimental: as §1, §2

[13] = tested on: S. aureus MS15009/pMS99; assay: MIC, agar plate dilution method; details: Staphylococcus aureus, MS15009/PMS99, 20 h, read-out: Antimicrobial activity (MIC)
Experimental: as §1, §2

[14] = tested on: S. aureus MS15026; assay: MIC, agar plate dilution method; details: Staphylococcus aureus, 37° C., 20 hours, SDA with 5% horse blood, read-out: Antimicrobial activity (MIC)
Experimental: as §1, §2

[15] = tested on: S. aureus MS15027; assay: MIC, agar plate dilution method; details: Staphylococcus aureus
Experimental: as §1, §2

[16] = tested on: S. epidermidis ATCC14990; assay: MIC, agar plate dilution method; details: Staphylococcus epidermidis
Experimental: as §1, §2

[17] = tested on: S. pneumoniae IP692; assay: MIC, agar plate dilution method; details: Streptococcus pneumoniae, IP692, 20 h, read-out: Antimicrobial activity (MIC), 37° C., 20 hours, SDA with 5% horse blood
Experimental: as §1, §2

[18] = tested on: S. pneumoniae Type 1; assay: MIC, agar plate dilution method; details: Streptococcus pneumoniae
Experimental: as §1, §2

[19] = tested on: S. pyogenes Cook; assay: MIC, agar plate dilution method; details: Streptococcus pyogenes
Experimental: as §1, §2

[20] = tested on: clinically important Gram-positive bacteria; assay: Antimicrobial activity / growth inhibition
Experimental: as §1, §2

[21] = W0500, 37° C., 20 hours, SDA with 5% horse blood, read-out: Antimicrobial activity (MIC)
[22] = W0506, 37° C., 20 hours, SDA with 5% horse blood, read-out: Antimicrobial activity (MIC)
[23] = 20 h, read-out: Antimicrobial activity (MIC), 37° C., 20 hours, SDA with 5% horse blood
[24] = ATCC9341, 37° C., 20 hours, SDA with 5% horse blood, read-out: Antimicrobial activity (MIC)
[25] = MS15027, 20 h, read-out: Antimicrobial activity (MIC), 37° C., 20 hours, SDA with 5% horse blood
[26] = ATCC14990, 20 h, read-out: Antimicrobial activity (MIC), 37° C., 20 hours, SDA with 5% horse blood
[27] = TYPE1, 37° C., 20 hours, SDA with 5% horse blood, read-out: Antimicrobial activity (MIC)
[28] = 37° C., 20 hours, SDA with 5% horse blood, read-out: Antimicrobial activity (MIC)

SMILES: CCOC(C)O[C@H]1/C=C/C=C/C[C@@H](C)OC(=O)C[C@@H](OC(=O)CC)[C@H](OC)[C@@H](O[C@@H]2O[C@H](C)[C@@H](O[C@H]3C[C@@](C)(OC)[C@@H](OC(=O)CC)[C@H](C)O3)[C@H](N(C)C)[C@H]2O)[C@@H](CC=O)C[C@H]1C (single isomer, unassigned) [(16H)]
- antimicrobial activities compared with compound (1) ([1]; vs compound (1)): inferior to those of the compound (1)

SMILES: CO[C@@H]1[C@@H](O[C@@H]2O[C@H](C)[C@@H](O[C@H]3C[C@@](C)(OC)[C@@H](O)[C@H](C)O3)[C@H](N(C)C)[C@H]2O)[C@@H](CC=O)C[C@@H](C)[C@@H](O)/C=C/C=C/C[C@@H](C)OC(=O)C[C@H]1O [(4), 3"-O-methylleucomycin V]
- MIC [2, 21]: 1.56 µg/mL (≈ 2.18 µM)
- MIC [3, 22]: 1.56 µg/mL (≈ 2.18 µM)
- MIC [4]: > 100 µg/mL
- MIC [5]: 0.78 µg/mL (≈ 1.09 µM)
- MIC [6, 23]: 12.5 µg/mL (≈ 17.5 µM)
- MIC [7]: > 100 µg/mL
- MIC [8, 24]: 0.05 µg/mL (≈ 0.0698 µM)
- MIC [9]: 0.39 µg/mL (≈ 0.545 µM)
- MIC [10]: > 100 µg/mL
- MIC [11]: 0.78 µg/mL (≈ 1.09 µM)
- MIC [12]: 0.39 µg/mL (≈ 0.545 µM)
- MIC [13]: > 100 µg/mL
- MIC [14]: > 100 µg/mL
- MIC [15, 25]: 0.78 µg/mL (≈ 1.09 µM)
- MIC [16, 26]: 0.78 µg/mL (≈ 1.09 µM)
- MIC [17]: 0.1 µg/mL (≈ 0.14 µM)
- MIC [18, 27]: 0.05 µg/mL (≈ 0.0698 µM)
- MIC [19, 23]: 0.1 µg/mL (≈ 0.14 µM)
- improvement of MIC values over corresponding compounds with free 3"-hydroxyl (midecamycin M1, leucomycin V) ([1]; most of the test strains): improved two to three times
- antimicrobial activities (in words) [20]: strong antimicrobial activities

SMILES: CCC(=O)O[C@H]1[C@H](C)O[C@@H](O[C@H]2[C@H](N(C)C)[C@@H](O)[C@H](O[C@H]3[C@@H](CC=O)C[C@@H](C)[C@@H](O)/C=C/C=C/C[C@@H](C)OC(=O)C[C@@H](O)[C@@H]3OC)O[C@@H]2C)C[C@@]1(C)O [LM-A7, leucomycin A7, reference compound]
- MIC ([2]; W0500, 20 h, read-out: Antimicrobial activity (MIC), 37° C., 20 hours, SDA with 5% horse blood): 12.5 µg/mL (≈ 16.5 µM)
- MIC [2, 21]: 0.78 µg/mL (≈ 1.03 µM)
- MIC ([3]; W0506, 20 h, read-out: Antimicrobial activity (MIC), 37° C., 20 hours, SDA with 5% horse blood): 12.5 µg/mL (≈ 16.5 µM)
- MIC [3, 22]: 0.78 µg/mL (≈ 1.03 µM)
- MIC [4]: > 100 µg/mL
- MIC [6, 23]: 50 µg/mL (≈ 66 µM)
- MIC [6, 28]: 6.25 µg/mL (≈ 8.25 µM)
- MIC [7]: > 100 µg/mL
- MIC ([8]; ATCC9341, 20 h, read-out: Antimicrobial activity (MIC), 37° C., 20 hours, SDA with 5% horse blood): 0.2 µg/mL (≈ 0.264 µM)
- MIC [8, 24]: 0.05 µg/mL (≈ 0.066 µM)
- MIC [10]: > 100 µg/mL
- MIC [13]: > 100 µg/mL
- MIC [14]: > 100 µg/mL
- MIC [15, 25]: 3.13 µg/mL (≈ 4.13 µM)
- MIC ([15]; MS15027, 37° C., 20 hours, SDA with 5% horse blood, read-out: Antimicrobial activity (MIC)): 0.39 µg/mL (≈ 0.515 µM)
- MIC [16, 26]: 3.13 µg/mL (≈ 4.13 µM)
- MIC ([16]; ATCC14990, 37° C., 20 hours, SDA with 5% horse blood, read-out: Antimicrobial activity (MIC)): 0.39 µg/mL (≈ 0.515 µM)
- MIC ([18]; TYPE1, 20 h, read-out: Antimicrobial activity (MIC), 37° C., 20 hours, SDA with 5% horse blood): 0.2 µg/mL (≈ 0.264 µM)
- MIC [18, 27]: 0.39 µg/mL (≈ 0.515 µM)
- MIC [19, 28]: 0.39 µg/mL (≈ 0.515 µM)

SMILES: CCCC(=O)O[C@H]1[C@H](C)O[C@@H](O[C@H]2[C@H](N(C)C)[C@@H](O)[C@H](O[C@H]3[C@@H](CC=O)C[C@@H](C)[C@@H](OC(=O)CC)/C=C/C=C/C[C@@H](C)OC(=O)C[C@@H](O)[C@@H]3OC)O[C@@H]2C)C[C@@]1(C)OC [(40), 9-O-propionyl-3"-O-methylleucomycin A5]
- antimicrobial activities compared with starting materials (1), (2) and (33) [1]: strong antimicrobial activities by themselves though slightly lower than those of their starting materials

SMILES: CCC(=O)O[C@H]1[C@H](C)O[C@@H](O[C@H]2[C@H](N(C)C)[C@@H](O)[C@H](O[C@H]3[C@@H](CC=O)C[C@@H](C)[C@@H](OC(C)=O)/C=C/C=C/C[C@@H](C)OC(=O)C[C@@H](O)[C@@H]3OC)O[C@@H]2C)C[C@@]1(C)OC [(6), 9-O-acetyl-3"-O-methylleucomycin A7]
- antimicrobial activities compared with starting materials (1), (2) and (33) [1]: strong antimicrobial activities by themselves though slightly lower than those of their starting materials
